The values that follow come from patent US20120322153A1, “REPROGRAMMING A CELL BY ACTIVATION OF THE ENDOGENOUS TRANSCRIPTION FACTOR NETWORK” (NUPOTENTIAL, INC., priority 2009, published 2012).

One data set concerns HDAC. The conditions noted are these: order of magnitude of affinity for HDAC; cited from earlier work.
The subject of data set [1] is Human adipose tissue derived adult stem cells. The data set is described as follows: ES cell-like colony formation of hADS cells pre-treated with HDAC inhibitor, then OSKM lentivirus. Type of data set: cell-based. On the procedure: Human adipose tissue derived adult stem cells were maintained at 37° C. in 95% humidity and 5% CO2 in Dulbecco's modified eagle medium (DMEM, Cell Application) containing 10% fetal bovine serum, 0.5% penicillin and streptomycin. Cells were grown, trypsinized and counted, then diluted in the above standard growth medium to achieve appropriate plating density (1×10^5 cells/well in 6 well plate, Corning) prior to HDAC inhibitor treatment.
Pre-treatment. […] The cell culture medium was changed every other day with new treatment.
Lentivirus infection. Lentivirus that over-expresses mouse Oct-4, Sox2, c-Myc, and Klf4 was purchased from Millipore, (Billerica, Mass.). One day before lentivirus infection, human adipose tissue-derived cells with or without HDAC inhibitor pretreatment were trypsinized and plated at a density of 1×10^5 cells/well in a 6 well plate (Corning) using standard growth medium described above. The following day, the medium was replaced with 1 ml of fresh medium containing 0.6 ug/ml of polybrene (Sigma-Aldrich, St. Louis, Mo.), and thawed lentivirus (MOI 75) was added directly to the wells following the manufacturer's instruction. Cells were maintained at 37° C. in 95% humidity and 5% CO2 incubator overnight. On the next day, lentiviral infection was repeated after cells were washed 3 times with 1×PBS. Lentivirus infected cells were maintained in the standard growth medium for 4˜5 days and trypsinized, and plated on irradiated MEF feeder layers (ATCC, Manassas, Va.) with mTeSR medium (Stem Cell Technology).

Data set [2] has the same test system. The experiment in a line: Immunohistochemistry for Sox-2 and Oct4 in ES cell-like colonies from hADS cells. Format: cell-based. The conditions noted are these: pre-treatment with TSA. As to the method:
Cells were fixed with fixative (Ethanol:acetic acid:H2O=7:2:1) for 10 minutes. After rinse 3 times with 10% FBS in 1×PBS for 5 min each and cells were incubated I hrs with primary antibodies for Oct4 (1:200 dilution, Abeam), or Sox2 (1:200 dilution, Abeam) in 10% FBS containing 0.2% saponin (Sigma) and following alexaFluor-conjugated secondary antibody (1:200 dilution, Invitrogen).

In the next data set the test system is BJFs (ATCC). The experiment in a line: HDAC and DNMT1 gene expression in BJFs treated with VPA. Type of data set: cell-based. As to the method: FIG. 4C is a bar graph reporting HDAC and DNMT1 gene expression in BJFs (ATCC) treated with […] Valproic acid (VPA) for 7 days.
Expression levels for shRNA-targeted genes and pluripotency transcription factor were quantified by real-time RT-PCR. Briefly, total RNA was prepared from cultures using Trizol Reagent (Life Technology) and the RNeasy Mini RNA isolation kit (Qiagen) with DNase I digestion according to manufacturer's protocol. Total RNA (1 μg) from each sample was subjected to oligo(dT)-primed reverse transcription (Invitrogen) to cDNA. Real-time PCR reactions were performed with PCR master mix on a 7300 real-time PCR system (Applied Biosystems). For each sample, 1 μl of diluted cDNA (1:10) was added as template in the PCR reactions. Expression levels were compared to those in untreated and non-targeting shRNA control cells relative to cyclophillin.

In a further data set the test system is Human fibroblasts. To be noted: Retroviral infection, cited from earlier work.
The subject of data set [3] is Mouse embryonic fibroblasts. The conditions noted are these: Recombinant protein, cited from earlier work.
In the next data set the test system is mouse embryos. To be noted: mice, when properly dosed; cited from earlier work.
For data set [4] the following is noted: used as antiepileptic drug during pregnancy; a few percent of born children; cited from earlier work.
Setting [5] is: 5 days pre-treatment, 9 days after OSKM viral infection.
[6] abbreviates: 5 days pre-treatment, 11 days after OSKM viral infection.

Like-named read-outs stand apart in the source and are kept apart here.

As for `C=CCSSCC=C` [Diallyl disulfide (DADS), Diallyl disulfide], the “Affinity Range” value in the data set with HDAC is “uM”. For Oxamflatin, the “Affinity Range” value in the data set with HDAC is “uM”. As to `CN(C)c1ccc(C(=O)NCc2ccc(/C=C/C(=O)NO)cc2)cc1` [SK-7041], the “Affinity Range” value in the data set with HDAC is “nM”.

Regarding `CCN(CC)Cc1ccc2cc(COC(=O)Nc3ccc(C(=O)NO)cc3)ccc2c1` [ITF2357], the “Affinity Range” value in the data set with HDAC was “nM”. With `C[S+]([O-])CCCCN=C=S` (centres unmarked) [Sulforaphane (SFN), Sulforaphane], in the data set on HDAC, the “Affinity Range” value is recorded as “uM”. As for `O=C(/C=C/c1ccc(CNC(=O)c2ccc(N3CCCC3)cc2)cc1)NO` [SK-7068], in the data set on HDAC, the “Affinity Range” value was “nM”.

For `Nc1ccccc1NC(=O)c1ccc(CNc2nccc(-c3cccnc3)n2)cc1` [MGCD0103], the “Affinity Range” value in the data set with HDAC is recorded as “nM”. As for `CC(/C=C/C(=O)NO)=C\[C@@H](C)C(=O)c1ccc(N(C)C)cc1` [TSA, Trichostatin A], the “ES cell-like colony formation” value is “multiple colonies displaying morphologies consistent with embryonic stem cells or reprogrammed cells were observed” in data set [1] (setting [5]) and “ES cell-like colony formation was observed” in data set [1] (setting [6]). In addition, in data set [1] (5 days pre-treatment, then OSKM lentivirus), the “Increase in colony formation vs no pretreatment” value was “two-fold”. Further, the “Number of ES cell-like colonies” value in data set [1] (First Experiment) is 24; in data set [1] (Second Experiment), 21. Besides, the “Somatic cell reprogramming efficiency (number of formed colonies)” value in data set [1] (pre-treatment prior to four-factor transfection, TSA 1 μM) was “increased”. For the same compound, the “Sox-2 and Oct4 expression in ES cell-like colonies” value in data set [2] was “showed Sox-2 and Oct4 expression”. Also, the “Affinity Range” value with HDAC is “nM”. As for `S=C=NCCCCc1ccccc1` [Phenylbutyl isothiocyanate], the “Affinity Range” value in the data set on HDAC is “uM”. Turning to `O=C(CCCCCN1C(=O)c2cccc3cccc(c23)C1=O)NO` [Scriptaid], the “ES cell-like colony formation” value in data set [1] (setting [5]) was “ES cell-like colony formation was observed”; in data set [1] (setting [6]), “multiple colonies displaying morphologies consistent with embryonic stem cells or reprogrammed cells were observed”. As for `Nc1ccccc1NC(=O)c1ccc(CNC(=O)OCc2cccnc2)cc1` [MS-275 (same as MS-27-275)], in the data set with HDAC, the “Affinity Range” value is “nM”.

On to `O=C(/C=C/c1cccc(C(=O)NO)c1)NO` [m-Carboxycinnamic acid bishydroxamic acid], for which the “Affinity Range” value in the data set with HDAC is recorded as “uM”. Turning to `CC(=O)N[C@@H](CSC(=S)NCCCC[S+](C)[O-])C(=O)O` (some centres unmarked) [SFN-N-acetylcysteine (SFN-NAC), SFN-N-acetylcysteine], the “Affinity Range” value with HDAC is recorded as “uM”.

Turning to `O=C(CCCCCCC(=O)NO)NO` [SBHA (suberic bishydroxamate), suberic bishydroxamate], the “Affinity Range” value with HDAC is “uM”.

Regarding `O=C(/C=C/c1ccc(CN(CCO)CCc2c[nH]c3ccccc23)cc1)NO` [NVP-LAQ824], the “Affinity Range” value with HDAC is given as “nM”.

In the case of `O=C(CCCCCCCC(=O)NO)NO` [ABHA (azeleic bishydroxamic acid), azeleic bishydroxamic acid], the “Affinity Range” value with HDAC is recorded as “uM”. On to Suberoylanilide hydroxamic acid, for which, in the data set on HDAC, the “Affinity Range” value is recorded as “uM”.

Turning to `C[S+]([O-])CCCCNC(=S)SC[C@H](N)C(=O)O` (some centres unmarked) [SFN-cysteine (SFN-Cys), SFN-cysteine], the “Affinity Range” value in the data set on HDAC was “uM”. For `CCCC(=O)OCOC(=O)C(C)(C)C` [AN-9, Pivaloyloxymethyl butyrate, Pivaloyloxymethyl butyrate], the “Affinity Range” value in the data set on HDAC was “uM”.

As to `O=C(CCCCCCC(=O)Nc1cccnc1)NO` [Pyroxamide], the “Affinity Range” value in the data set on HDAC was “uM”. As for `CCCC(CCC)C(=O)O` [VPA, Valproic acid], the DNMT1 gene expression result in the data set on BJFs (ATCC) (BJFs, 500 nM VPA, 7 days, vs control (MC) cells, P<0.005) is given as “significantly up regulated”. In the data set with BJFs (ATCC) (BJFs, 500 nM VPA, 7 days, vs control (MC) cells, P<0.01), the HDAC1 gene expression result is reported as “significantly up regulated”. Besides, the SIRT4 gene expression result with BJFs (ATCC) (BJFs, 500 nM VPA, 7 days, vs control (MC) cells, P<0.05) was “significantly up regulated”. Besides, in the data set with BJFs (ATCC) (treatment of cells with VPA (FIG. 4C)), the “Compensatory expression of HDACs (HDAC9, HDAC5, HDAC11, SIRT4, SIRT5)” value was “induced”. For the same compound, the “ES cell-like colony formation” value in data set [1] (setting [5]) and in data set [1] (setting [6]) was “Colonies displaying characteristics of embryonic stem cells or reprogrammed cells were observed” each time. For the same compound, the Efficiency in the data set with Human fibroblasts (2 iPS factors (OS) + VPA) is recorded as 0.001%; with Human fibroblasts (3 iPS factors (OSK) + VPA), 1%; in data set [3] (3 iPS factors (OSK) + VPA) it was 0.002%; in data set [3] (4 iPS factors (OSKM) + VPA), 0.006%. In addition, in the data set with HDAC, the “Affinity Range” value was “mM”. The Teratogenicity entry in the data set on mouse embryos is “teratogenic in the majority of mouse embryos”. In addition, the “Birth defects (neural tube closure defects and other malformations)” value in data set [4] is recorded as “may induce birth defects”. In the case of `CCCC(=O)[O-].[Na+]` [Butyrate/Sodium Butyrate, Sodium Butyrate], the “Affinity Range” value with HDAC is listed as “mM”. In the case of `O=C(/C=C/c1cccc(S(=O)(=O)Nc2ccccc2)c1)NO` [PDX-101], the “Affinity Range” value in the data set with HDAC is listed as “uM”.

As to `CC(=O)Nc1ccc(C(=O)Nc2ccccc2N)cc1` [CI-994(N-acetyl dinaline), N-acetyl dinaline], the “Affinity Range” value with HDAC is “nM”.
